Experimental data taken from the NIST ThermoML archive (doi:10.1016/j.jct.2017.07.004).
Numbers after ± are expanded uncertainties.

Tests used:
[1] = xn = mol fraction of the nth substance listed; conditions: 100 kPa, Liquid, x2 = 0; for viscosity: Concentric cylinders viscometry; for mass density: Vibrating tube method
[2] = 100 kPa, Liquid; for viscosity: Concentric cylinders viscometry; for mass density: Vibrating tube method

CCC(C)O (configuration not stated) [butan-2-ol] + CCC=O
viscosity ([1]; 293.15 K): 3.67 ± 0.29 mPa·s
mass density ([1]; 293.15 K): 806.7 ± 1 kg/m3
viscosity ([1]; 298.15 K): 3.04 ± 0.24 mPa·s
mass density ([1]; 298.15 K): 802.7 ± 1 kg/m3
viscosity ([1]; 303.15 K): 2.54 ± 0.2 mPa·s
mass density ([1]; 303.15 K): 798.4 ± 1 kg/m3
viscosity ([1]; 308.15 K): 2.13 ± 0.17 mPa·s
mass density ([1]; 308.15 K): 794.1 ± 1 kg/m3
viscosity ([1]; 313.15 K): 1.8 ± 0.14 mPa·s
mass density ([1]; 313.15 K): 789.8 ± 1 kg/m3
viscosity ([1]; 318.15 K): 1.54 ± 0.12 mPa·s
mass density ([1]; 318.15 K): 785.2 ± 1 kg/m3
viscosity ([1]; 323.15 K): 1.33 ± 0.11 mPa·s
mass density ([1]; 323.15 K): 780.6 ± 1 kg/m3

CCCC(C)O (configuration not stated) [pentan-2-ol]
viscosity ([2]; 298.15 K): 3.32 ± 0.27 mPa·s
viscosity ([2]; 303.15 K): 2.81 ± 0.23 mPa·s
viscosity ([2]; 308.15 K): 2.37 ± 0.19 mPa·s
viscosity ([2]; 313.15 K): 1.99 ± 0.16 mPa·s
viscosity ([2]; 318.15 K): 1.66 ± 0.13 mPa·s
viscosity ([2]; 323.15 K): 1.39 ± 0.11 mPa·s

CCCC(C)O (configuration not stated) [pentan-2-ol] + CCC=O
viscosity ([1]; 293.15 K): 3.97 ± 0.32 mPa·s
mass density ([1]; 293.15 K): 809.3 ± 1 kg/m3
viscosity ([1]; 298.15 K): 3.32 ± 0.27 mPa·s
mass density ([1]; 298.15 K): 805.3 ± 1 kg/m3
viscosity ([1]; 303.15 K): 2.81 ± 0.23 mPa·s
mass density ([1]; 303.15 K): 801.2 ± 1 kg/m3
viscosity ([1]; 308.15 K): 2.37 ± 0.19 mPa·s
mass density ([1]; 308.15 K): 797 ± 1 kg/m3
viscosity ([1]; 313.15 K): 1.99 ± 0.16 mPa·s
mass density ([1]; 313.15 K): 792.7 ± 1 kg/m3
viscosity ([1]; 318.15 K): 1.66 ± 0.13 mPa·s
mass density ([1]; 318.15 K): 788.4 ± 1 kg/m3
viscosity ([1]; 323.15 K): 1.39 ± 0.11 mPa·s
mass density ([1]; 323.15 K): 784 ± 1 kg/m3

CC(C)O [propan-2-ol] + CCC=O
viscosity ([1]; 293.15 K): 2.42 ± 0.19 mPa·s
mass density ([1]; 293.15 K): 785.4 ± 1 kg/m3
viscosity ([1]; 298.15 K): 2.08 ± 0.17 mPa·s
mass density ([1]; 298.15 K): 781.1 ± 1 kg/m3
viscosity ([1]; 303.15 K): 1.8 ± 0.14 mPa·s
mass density ([1]; 303.15 K): 776.8 ± 1 kg/m3
viscosity ([1]; 308.15 K): 1.56 ± 0.13 mPa·s
mass density ([1]; 308.15 K): 772.4 ± 1 kg/m3
viscosity ([1]; 313.15 K): 1.36 ± 0.11 mPa·s
mass density ([1]; 313.15 K): 768 ± 1 kg/m3
viscosity ([1]; 318.15 K): 1.19 ± 0.1 mPa·s
mass density ([1]; 318.15 K): 763.4 ± 1 kg/m3
viscosity ([1]; 323.15 K): 1.05 ± 0.08 mPa·s
mass density ([1]; 323.15 K): 758.8 ± 1 kg/m3

CCC=O [propanal]
viscosity ([2]; 293.15 K): 0.34 ± 0.03 mPa·s
mass density ([2]; 293.15 K): 802.4 ± 1 kg/m3
viscosity ([2]; 298.15 K): 0.33 ± 0.03 mPa·s
mass density ([2]; 298.15 K): 796.2 ± 1 kg/m3
viscosity ([2]; 303.15 K): 0.31 ± 0.03 mPa·s
mass density ([2]; 303.15 K): 790.3 ± 1 kg/m3
viscosity ([2]; 308.15 K): 0.3 ± 0.03 mPa·s
mass density ([2]; 308.15 K): 784.5 ± 1 kg/m3
viscosity ([2]; 313.15 K): 0.28 ± 0.02 mPa·s
mass density ([2]; 313.15 K): 779 ± 1 kg/m3
viscosity ([2]; 318.15 K): 0.27 ± 0.02 mPa·s
mass density ([2]; 318.15 K): 773.5 ± 1 kg/m3
viscosity ([2]; 323.15 K): 0.25 ± 0.02 mPa·s
mass density ([2]; 323.15 K): 768.2 ± 1 kg/m3
